# According to patent publication US20090291964A1, “Potentiators of Antibacterial Activity” (priority 2003, published 2009):
# Legend:
# Assay type in all cases: cell-based
# S. aureus SA-1199B = assay: Minimal effective concentration (MEC) of EPI for gatifloxacin
# Experimental: (§1) The MEC was determined as the minimal concentration of EPI that produced the maximal reduction in substrate MIC.
# (§2) Since any given compound may be recognized by an unknown number of efflux pumps in a particular organism, we reasoned that the MEC of A-106 and C-9 should vary for different antibiotics. Also, the MEC of A-106 and C-9 should vary with the degree of efflux expression in a given strain. […] This was confirmed with two other wild type strains, SA-8325-4 and SA-1199 (Table 3).
# (§3) The MEC of A-106 and C-9 for gatifloxacin was determined in these efflux mutants. […] A similar result was obtained with efflux mutant K2068, where the MEC for A-106 was 6.25 μg/ml and the MEC for C-9 was 3.1 μg/ml. […] This may reflect that either gatifloxacin is recognized by fewer pumps than EtBr or it is a poorer efflux substrate in general. This is consistent with the finding that the activity of A-106 was non-saturable for EtBr but is saturable for gatifloxacin.
# S. aureus K2068 = assay: as above
# Experimental: as §1, §2, §3
# S. aureus ATCC 29213 = assay: as above; conditions: lowest amount of EPI which produces the maximum effect on the MIC of gatifloxacin
# Experimental: as §1, §2
# S. pneumoniae ATCC 10015 [1] = assay: MIC by NCCLS microdilution, EtBr/EPI with and without EPI
# Experimental: (§4) 3% sterile laked horse blood (Quad Five, Ryegate, Mont.) was added to assays for E. faecalis and S. Pneumoniae. A final concentration of 1% DMSO was present in all assays.
# (§5) EtBr is a general substrate for many different efflux pumps in bacteria. Markham et al., “Multiple Novel Inhibitors of the NorA Multidrug Transporter of Staphylococcus aureus”, Antimicrob. Agents Chemother. 43:2404-2408 (1999). Since EtBr is a non-specific DNA intercalator, the only known mechanism of resistance to EtBr is via efflux. Markham et al., “Multiple Novel Inhibitors of the NorA Multidrug Transporter of Staphylococcus aureus”, Antimicrob. Agents Chemother. 43:2404-2408 (1999).
# E. faecalis ATCC 29212 = assay: as above
# Experimental: as §4, §5
# S. pneumoniae ATCC 10015 [2] = assay: Minimal effective concentration (MEC) of EPI for EtBr; conditions: lowest amount of EPI which produces the maximum effect on the MIC of ethidium bromide (reserpine: maximal subinhibitory concentration)
# Experimental: as §1
# The minimum effective concentration (MEC) for inhibition of EtBr efflux was determined in S. aureus, E. faecalis and S. pneumoniae for A-106 and C-9; reserpine was used as a comparator (Table 1).
# [3] = tested on: S. aureus SA-1199 (clinical isolate, susceptible); assay: MIC of fluoroquinolones with and without EPI; conditions: S. aureus SA-1199; EPI at 4X the MEC for EtBr, VX-710 at 100 μg/ml
# Description: (§6) A variety of strains may be used in these experiments, including, but not limited to, S. aureus ATCC 29213, E. faecalis ATCC 29212, and S. pneumoniae, S. aureus strains SA-1199, SA-1199B, SA-8325-4, and SA-K2068. S. aureus ATCC 29213, E. faecalis ATCC 29212, and S. pneumoniae ATCC 10015 were obtained from the American Type Culture Collection (Manassas, Va.). S. aureus strains SA-1199 (clinical isolate, susceptible), SA-1199B (SA-1199, NorA overproducing, also has A116E GrlA mutation), SA-8325-4 (NCTC 8325 cured of prophages), SA-K2068 (SA-8325-4, non-NorA multidrug efflux pump overproducing mutation) were obtained from Glenn Kaatz (Kaatz et al., “Identification and characterization of a novel efflux-related multidrug resistance phenotype in Staphylococcus aureus”, J. Antimicrob. Chemother. 50:833-838 (2002); 1993; Kaatz et al., “Phenothiazines and thioxanthenes inhibit multidrug efflux pump activity in Staphylococcus aureus”, Antimicrob. Agents Chemother. 47:719-726, Kaatz et al., “Efflux-mediated fluoroquinolone resistance in Staphylococcus aureus. Antimicrob. Agents Chemother.”, 37:1086-1094, 1993)).
# as §4
# S. aureus SA-8325-4 = assay: MIC of fluoroquinolones with and without EPI; conditions: S. aureus SA-8325-4; EPI at 4X the MEC for EtBr, VX-710 at 100 μg/ml
# Description: as §6, §4
# [4] = tested on: S. aureus SA-K2068 (non-NorA multidrug efflux pump overproducing); assay: microbe, parasite or virus in culture
# Description: as §6, §4
# Recent more hydrophobic fluoroquinolones such as gatifloxacin and moxifloxacin are less well recognized by NorA; however, recently one other pump in S. aureus has been described which also recognizes hydrophobic fluoroquinolones (Kaatz et al. 2002, supra). To investigate the potential of A-106 and C-9 to block the efflux of several fluoroquinolones in cells with constituitively over-expressed efflux pumps, we used S. aureus strains SA-1199B and K2068 (Table 3). […] Kaatz et al., “Phenothiazines and thioxanthenes inhibit multidrug efflux pump activity in Staphylococcus aureus”, Antimicrob. Agents Chemother. 47:719-726 (2003).
# [5] = S. pneumoniae ATCC 10015, EPIs used at the MEC, except VX-710 at 100 μg/ml
# [6] = E. faecalis ATCC 29212, EPIs used at the MEC, except VX-710 at 100 μg/ml
# [7] = K2068, EPIs at 4 times MEC for EtBr, A-106 at 100 μg/ml
# [8] = S. aureus K2068, EPI at 4X the MEC for EtBr, VX-710 at 100 μg/ml
compound,measurement,setting,value
COc1cc(C(=O)C(=O)N2CCCC[C@H]2C(=O)OC(CCCc2cccnc2)CCCc2cccnc2)cc(OC)c1OC [A-106],MEC,"S. aureus SA-1199B; S. aureus SA-1199B (NorA overproducer), lowest amount of EPI which produces the maximum effect on the MIC of gatifloxacin",12.5 µg/mL
same,MEC for gatifloxacin,"S. aureus SA-1199B; efflux mutant, strain not named in the sentence (SA-1199B by context)",12.5 µg/mL
same,MEC,"S. aureus K2068; S. aureus K2068 (nonNorA pump overproducer), lowest amount of EPI which produces the maximum effect on the MIC of gatifloxacin",6.25 µg/mL
same,MEC for gatifloxacin,S. aureus K2068; efflux mutant K2068,6.25 µg/mL
same,MEC,S. aureus ATCC 29213,>100 µg/mL
same,MIC of EPI,"S. pneumoniae ATCC 10015 [1]; S. pneumoniae ATCC 10015, EPI alone",>100 µg/mL
same,Fold-reduction in EtBr MIC,S. pneumoniae ATCC 10015 [1]; [5],≧16
same,MIC of EtBr with EPI,S. pneumoniae ATCC 10015 [1]; [5],≦0.125 μg/ml
same,intrinsic antibacterial activity of EPI,"S. pneumoniae ATCC 10015 [1]; at 100 μg/ml, S. pneumoniae",no intrinsic antibacterial activity
same,MIC of EPI,"E. faecalis ATCC 29212; E. faecalis ATCC 29212, EPI alone",>100 µg/mL
same,Fold-reduction in EtBr MIC,E. faecalis ATCC 29212; [6],8
same,MIC of EtBr with EPI,E. faecalis ATCC 29212; [6],0.8 µg/mL
same,intrinsic antibacterial activity of EPI,"E. faecalis ATCC 29212; at 100 μg/ml, E. faecalis",no intrinsic antibacterial activity
same,MEC of EPI,S. pneumoniae ATCC 10015 [2],≧100 μg/ml
same,MIC of EtBr with EPI,[3],0.2 µg/mL
same,MIC of ciprofloxacin with EPI,[3],0.063 µg/mL
same,MIC of gatifloxacin with EPI,[3],0.063 µg/mL
same,MIC of gentamicin with EPI,[3],0.125 µg/mL
same,MIC of levofloxacin with EPI,[3],0.125 µg/mL
same,MIC of norfloxacin with EPI,[3],0.125 µg/mL
same,MIC of EtBr with EPI,S. aureus SA-8325-4,<0.1 µg/mL
same,MIC of ciprofloxacin with EPI,S. aureus SA-8325-4,0.125 µg/mL
same,MIC of gatifloxacin with EPI,S. aureus SA-8325-4,0.125 µg/mL
same,MIC of gentamicin with EPI,S. aureus SA-8325-4,0.063 µg/mL
same,MIC of levofloxacin with EPI,S. aureus SA-8325-4,0.25 µg/mL
same,MIC of norfloxacin with EPI,S. aureus SA-8325-4,0.25 µg/mL
same,reduction of MIC of ciprofloxacin,[4]; [7],4 fold
same,reduction of MIC of gatifloxacin,[4]; [7],2 fold
same,reduction of MIC of levofloxacin,[4]; [7],2 fold
same,reduction of MIC of norfloxacin,[4]; [7],2 fold
same,MIC of gatifloxacin with EPI,[4]; S. aureus K2068 (nonNorA pump overproducer) (Table 4),0.25 µg/mL
same,MIC of EtBr with EPI,[4]; [8],0.4 µg/mL
same,MIC of ciprofloxacin with EPI,[4]; [8],0.5 µg/mL
same,MIC of gatifloxacin with EPI,[4]; [8],0.25 µg/mL
same,MIC of gentamicin with EPI,[4]; [8],0.063 µg/mL
same,MIC of levofloxacin with EPI,[4]; [8],0.5 µg/mL
same,MIC of norfloxacin with EPI,[4]; [8],1 µg/mL
same,Fold-reduction in MIC,"[4]; gatifloxacin, S. aureus K2068 (nonNorA pump overproducer)",4
